Laboratory results taken from US10750743B2, “Pyridazinone herbicides” (E.I. DU PONT DE NEMOURS AND COMPANY, priority 2015, dated 2020).

Assays:
Format in all cases: in vivo
[1] = test system: wheat (Triticum aestivum); test: Test A postemergence application, visual injury rating; conditions: 0 to 100 scale, 0 no effect, 100 complete control
How it was run: (§1)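 Compounds in a surfactant-containing solvent were applied as a directed soil spray preemergence, or postemergence to plants 2-10 cm tall at the one- to two-leaf stage, in loam-sand blend. After about 10 d in the greenhouse, injury was rated visually against untreated controls on a 0-100 scale (100 = complete control).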

[2] = test system: foxtail, giant (giant foxtail, Setaria faberii); test: as above; conditions: 0 to 100 scale, 0 no effect, 100 complete control
How it was run: as §1

[3] = test system: galium (catchweed bedstraw, Galium aparine); test: as above; conditions: 0 to 100 scale, 0 no effect, 100 complete control
How it was run: as §1

[4] = test system: blackgrass (Alopecurus myosuroides); test: as above; conditions: 0 to 100 scale, 0 no effect, 100 complete control
How it was run: as §1

[5] = test system: kochia (Kochia scoparia); test: as above; conditions: 0 to 100 scale, 0 no effect, 100 complete control
How it was run: as §1

[6] = test system: ragweed (common ragweed, Ambrosia elatior); test: as above; conditions: 0 to 100 scale, 0 no effect, 100 complete control
How it was run: as §1

[7] = test system: ryegrass, It. (Italian ryegrass, Lolium multiflorum); test: as above; conditions: 0 to 100 scale, 0 no effect, 100 complete control
How it was run: as §1

[8] = test system: corn (Zea mays); test: as above; conditions: 0 to 100 scale, 0 no effect, 100 complete control
How it was run: as §1

[9] = test system: barnyardgrass (Echinochloa crus-galli); test: as above; conditions: 0 to 100 scale, 0 no effect, 100 complete control
How it was run: as §1

[10] = test system: pigweed (Amaranthus retroflexus); test: as above; conditions: 0 to 100 scale, 0 no effect, 100 complete control
How it was run: as §1

[11] = test system: rice (Oryza sativa); test: Test B flooded paddy test, visual rating; conditions: Flood, 250 g ai/ha, applied to paddy water, rated after 13 to 15 d
How it was run: (§2)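 Plants grown to the 2-leaf stage. At treatment, pots were flooded to 3 cm above the soil, compound was applied directly to the paddy water, and that depth was held throughout. After 13 to 15 d in the greenhouse, response was rated visually against controls on a 0 (no effect) to 100 (complete control) scale.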

[12] = test system: barnyardgrass (Echinochloa crus-galli); test: Test B flooded paddy test, visual rating; conditions: Flood, 250 g ai/ha, applied to paddy water, rated after 13 to 15 d
How it was run: as §2

[13] = test system: ducksalad (Heteranthera limosa); test: Test B flooded paddy test, visual rating; conditions: Flood, 250 g ai/ha, applied to paddy water, rated after 13 to 15 d
How it was run: as §2

[14] = test system: sedge, umbrella (small-flower umbrella sedge, Cyperus difformis); test: Test B flooded paddy test, visual rating; conditions: Flood, 250 g ai/ha, applied to paddy water, rated after 13 to 15 d
How it was run: as §2

[15] = test system: foxtail, giant (giant foxtail, Setaria faberii); test: Test A preemergence, directed soil spray, visual injury rating; conditions: 0 is no effect, 100 is complete control
How it was run: as §1

[16] = test system: kochia (Kochia scoparia); test: as above; conditions: 0 is no effect, 100 is complete control
How it was run: as §1

[17] = test system: ragweed (common ragweed, Ambrosia elatior); test: as above; conditions: 0 is no effect, 100 is complete control
How it was run: as §1

[18] = test system: ryegrass, It. (Italian ryegrass, Lolium multiflorum); test: as above; conditions: 0 is no effect, 100 is complete control
How it was run: as §1

[19] = test system: barnyardgrass (Echinochloa crus-galli); test: as above; conditions: 0 is no effect, 100 is complete control
How it was run: as §1

[20] = test system: pigweed (Amaranthus retroflexus); test: as above; conditions: 0 is no effect, 100 is complete control
How it was run: as §1

Row | SMILES | Wheat plant response rating ([1]; 125 g ai/ha) | Foxtail, Giant plant response rating ([2]; 125 g ai/ha) | Galium plant response rating ([3]; 125 g ai/ha) | Blackgrass plant response rating ([4]; 125 g ai/ha) | Kochia plant response rating ([5]; 125 g ai/ha) | Ragweed plant response rating ([6]; 125 g ai/ha) | Ryegrass, It. plant response rating ([7]; 125 g ai/ha) | Corn plant response rating ([8]; 125 g ai/ha) | Barnyardgrass plant response rating ([9]; 125 g ai/ha) | Pigweed plant response rating ([10]; 125 g ai/ha) | Rice plant response rating (0 to 100 scale, 0 is no effect, 100 is complete control) [11] | Barnyardgrass plant response rating (0 to 100 scale, 0 is no effect, 100 is complete control) [12] | Ducksalad plant response rating (0 to 100 scale, 0 is no effect, 100 is complete control) [13] | Sedge, Umbrella plant response rating (0 to 100 scale, 0 is no effect, 100 is complete control) [14] | Plant response rating (0 to 100 scale), Foxtail, Giant ([15]; 125 g ai/ha) | Plant response rating (0 to 100 scale), Kochia ([16]; 125 g ai/ha) | Plant response rating (0 to 100 scale), Ragweed ([17]; 125 g ai/ha) | Plant response rating (0 to 100 scale), Ryegrass, It. ([18]; 125 g ai/ha) | Plant response rating (0 to 100 scale), Barnyardgrass ([19]; 125 g ai/ha) | Plant response rating (0 to 100 scale), Pigweed ([20]; 125 g ai/ha) | other results
1 | Cc1nc2c(-c3c(O)c(C)nn(C)c3=O)cccc2s1 [Compound 27] | 0 | 20 | 0 | 0 | 0 | 0 | 20 | 0 | 0 | 0 | 0 | 0 | 0 | 0 | 0 | 0 | 20 | 30 | 0 | 0 | Wheat plant response rating ([1]; 500 g ai/ha): 0; Foxtail, Giant plant response rating ([2]; 500 g ai/ha): 40; Galium plant response rating ([3]; 500 g ai/ha): 60; Blackgrass plant response rating ([4]; 500 g ai/ha): 30; Kochia plant response rating ([5]; 500 g ai/ha): 0; Ragweed plant response rating ([6]; 500 g ai/ha): 30; Ryegrass, It. plant response rating ([7]; 500 g ai/ha): 40; Corn plant response rating ([8]; 500 g ai/ha): 0; Barnyardgrass plant response rating ([9]; 500 g ai/ha): 20; Pigweed plant response rating ([10]; 500 g ai/ha): 0; Plant response rating (0 to 100 scale), Foxtail, Giant ([15]; 500 g ai/ha): 50; Plant response rating (0 to 100 scale), Kochia ([16]; 500 g ai/ha): 0; Plant response rating (0 to 100 scale), Ragweed ([17]; 500 g ai/ha): 20; Plant response rating (0 to 100 scale), Ryegrass, It. ([18]; 500 g ai/ha): 40; Plant response rating (0 to 100 scale), Barnyardgrass ([19]; 500 g ai/ha): 0; Plant response rating (0 to 100 scale), Pigweed ([20]; 500 g ai/ha): 0
2 | COC(=O)Oc1c(C)nn(C)c(=O)c1-c1cccc2cc(C)oc12 [Compound 28] | 0 | 20 | 80 | 30 | 40 | 60 | 60 | 0 | 10 | 40 | 0 | 0 | 0 | 0 | 0 | 20 | 30 | 70 | 0 | 0 | Wheat plant response rating ([1]; 31 g ai/ha): 0; Foxtail, Giant plant response rating ([2]; 31 g ai/ha): 0; Galium plant response rating ([3]; 31 g ai/ha): 40; Blackgrass plant response rating ([4]; 31 g ai/ha): 0; Kochia plant response rating ([5]; 31 g ai/ha): 0; Ragweed plant response rating ([6]; 31 g ai/ha): 20; Ryegrass, It. plant response rating ([7]; 31 g ai/ha): 30; Corn plant response rating ([8]; 31 g ai/ha): 0; Barnyardgrass plant response rating ([9]; 31 g ai/ha): 0; Pigweed plant response rating ([10]; 31 g ai/ha): 10; Plant response rating (0 to 100 scale), Foxtail, Giant ([15]; 31 g ai/ha): 0; Plant response rating (0 to 100 scale), Kochia ([16]; 31 g ai/ha): 0; Plant response rating (0 to 100 scale), Ragweed ([17]; 31 g ai/ha): 0; Plant response rating (0 to 100 scale), Ryegrass, It. ([18]; 31 g ai/ha): 20; Plant response rating (0 to 100 scale), Barnyardgrass ([19]; 31 g ai/ha): 0; Plant response rating (0 to 100 scale), Pigweed ([20]; 31 g ai/ha): 0
3 | CCC(=O)Oc1c(C)nn(C)c(=O)c1-c1c(C)ccc2sccc12 [Compound 31] | 20 | 10 | 90 | 50 | 90 | 70 | 100 | 20 | 10 | 90 | 0 | 0 | 0 | 0 | 10 | 20 | 20 | 90 | 10 | 90 | Wheat plant response rating ([1]; 500 g ai/ha): 30; Foxtail, Giant plant response rating ([2]; 500 g ai/ha): 80; Galium plant response rating ([3]; 500 g ai/ha): 100; Blackgrass plant response rating ([4]; 500 g ai/ha): 60; Kochia plant response rating ([5]; 500 g ai/ha): 100; Ragweed plant response rating ([6]; 500 g ai/ha): 80; Ryegrass, It. plant response rating ([7]; 500 g ai/ha): 100; Corn plant response rating ([8]; 500 g ai/ha): 40; Barnyardgrass plant response rating ([9]; 500 g ai/ha): 60; Pigweed plant response rating ([10]; 500 g ai/ha): 90; Plant response rating (0 to 100 scale), Foxtail, Giant ([15]; 500 g ai/ha): 90; Plant response rating (0 to 100 scale), Kochia ([16]; 500 g ai/ha): 90; Plant response rating (0 to 100 scale), Ragweed ([17]; 500 g ai/ha): 90; Plant response rating (0 to 100 scale), Ryegrass, It. ([18]; 500 g ai/ha): 100; Plant response rating (0 to 100 scale), Barnyardgrass ([19]; 500 g ai/ha): 90; Plant response rating (0 to 100 scale), Pigweed ([20]; 500 g ai/ha): 100
4 | Cc1nn(C)c(=O)c(-c2cccc3sccc23)c1O [Compound 32] | 0 | 0 | 40 | 0 | 20 | 0 | 70 | 0 | 0 | 30 | 0 | 0 | 40 | 50 | 10 | 30 | 0 | 70 | 20 | 40 | Wheat plant response rating ([1]; 500 g ai/ha): 20; Foxtail, Giant plant response rating ([2]; 500 g ai/ha): 40; Galium plant response rating ([3]; 500 g ai/ha): 80; Blackgrass plant response rating ([4]; 500 g ai/ha): 30; Kochia plant response rating ([5]; 500 g ai/ha): 70; Ragweed plant response rating ([6]; 500 g ai/ha): 40; Ryegrass, It. plant response rating ([7]; 500 g ai/ha): 90; Corn plant response rating ([8]; 500 g ai/ha): 0; Barnyardgrass plant response rating ([9]; 500 g ai/ha): 50; Pigweed plant response rating ([10]; 500 g ai/ha): 30; Plant response rating (0 to 100 scale), Foxtail, Giant ([15]; 500 g ai/ha): 50; Plant response rating (0 to 100 scale), Kochia ([16]; 500 g ai/ha): 40; Plant response rating (0 to 100 scale), Ragweed ([17]; 500 g ai/ha): 80; Plant response rating (0 to 100 scale), Ryegrass, It. ([18]; 500 g ai/ha): 100; Plant response rating (0 to 100 scale), Barnyardgrass ([19]; 500 g ai/ha): 40; Plant response rating (0 to 100 scale), Pigweed ([20]; 500 g ai/ha): 100
